In patent US20110118348A1, “Methods of stabilizing latanoprost in an aqueous solution” (SANTEN PHARMACEUTICAL CO., LTD., priority 2002, published 2011):
Marks after values point to notes of the source that are not given here.

Test: Stability Test of Latanoprost 1: residual ratio of latanoprost in phosphate buffer at each pH after storage at 60° C. or 70° C. (HPLC)
Type: physicochemical
Settings: for Residual ratio (%): pH 8.0, phosphate buffer
Procedure: 1) Latanoprost (0.0025 g) was weighed out in a 50 ml-beaker, a phosphate buffer (50 ml) having each pH (4.0, 5.0, 5.5, 6.0, 6.25, 6.5, 6.7 or 8.0) prepared in advance was added to the beaker, and the mixture was stirred with a magnetic stirrer. The mixture was stirred while warming it in a water bath at about 80° C. for about 30 minutes to dissolve latanoprost. 2) It was confirmed that latanoprost was dissolved, and pH was confirmed. 3) A glass ampoule was charged with each prepared solution (2.5 ml) and sealed by melting it. 4) It was stored at 60° C. or 70° C. 5) Sampling was carried out with time until 28th day after starting storage, latanoprost contents were measured by high performance liquid chromatography, and residual ratios were calculated. Samples having residual ratios of 95% or higher after storage at 60° C. for 28 days and residual ratios of 90% or higher after storage at 70° C. for 28 days were judged to be stable.

Residual ratio (%) after storage for 28 days (60° C., pH 4.0, phosphate buffer): 87.4% | Residual ratio (%) after storage for 28 days (60° C., pH 5.0, phosphate buffer): 98.9% | Residual ratio (%) after storage for 28 days (60° C., pH 5.5, phosphate buffer): 98.0% | Residual ratio (%) after storage for 28 days (60° C., pH 6.0, phosphate buffer): 98.9% | Residual ratio (%) after storage for 28 days (60° C., pH 6.25, phosphate buffer): 95.0% | Residual ratio (%) after storage for 28 days (60° C., pH 6.5, phosphate buffer): 92.4% | Residual ratio (%) after storage for 28 days (60° C., pH 6.7, phosphate buffer): 93.4% | Residual ratio (%) (60° C., value on 21st day): 30.0* % | Residual ratio (%) after storage for 28 days (70° C., pH 4.0, phosphate buffer): 76.7% | Residual ratio (%) after storage for 28 days (70° C., pH 5.0, phosphate buffer): 94.9% | Residual ratio (%) after storage for 28 days (70° C., pH 5.5, phosphate buffer): 94.6% | Residual ratio (%) after storage for 28 days (70° C., pH 6.0, phosphate buffer): 93.1% | Residual ratio (%) after storage for 28 days (70° C., pH 6.25, phosphate buffer): 92.0% | Residual ratio (%) after storage for 28 days (70° C., pH 6.5, phosphate buffer): 82.7% | Residual ratio (%) (70° C., value on 12th day): 14.1** %
SMILES: CC(C)OC(=O)CCC/C=C\C[C@@H]1[C@@H](CC[C@@H](O)CCc2ccccc2)[C@H](O)C[C@@H]1O [latanoprost, isopropyl (Z)-7[(1R,2R,3R,5S)3,5-dihydroxy-2-[(3R)-3-hydroxy-5-phenylpentyl]cyclopentyl]-5-heptanoate]
